Earlier results, collected in paper PMC2667333 (Molecular cell, 2009).

Test system: calcineurin (CN)
Details: ref Swanson et al., 1992; Yin and Ochs, 2003

| Molecule | effect on CN-mediated pNPP dephosphorylation |
| --- | --- |
| C=CC[C@@H]1/C=C(\C)C[C@H](C)C[C@H](OC)[C@H]2O[C@@](O)(C(=O)C(=O)N3CCCC[C@H]3C(=O)O[C@H](/C(C)=C/[C@@H]3CC[C@@H](O)[C@H](OC)C3)[C@H](C)[C@@H](O)CC1=O)[C@H](C)C[C@@H]2OC [FK506] | increase CN-mediated pNPP dephosphorylation |
| cyclosporin A [CsA] | increase CN-mediated pNPP dephosphorylation |
